Assay results as given in patent publication US20160222014A1, “COMPOUNDS FOR REGULATING FAK AND/OR SRC PATHWAYS” (ASANA BIOSCIENCES, LLC, priority 2013, published 2016).

Biological target: T1, recombinant human FAK1 (Homo sapiens, UniProt Q05397)
T1 construct: fused on or other part: N-terminal 6xHis tag
Assay: FAK1 HTRF assay
Type: biochemical
Method: Active FAK1 was prepared for use in the Homogeneous Time-Resolved Fluorescence (HTRF) assay. Briefly, N-terminal 6 His tagged recombinant human FAK1, from residue 692-end (GenBank accession no. L13616) was expressed by Bacculovirus in sf9 cells. […] A 1.6 mg/mL (45 μM) stock was used in the HTRF assay at a final concentration of 10 nM.
Gastrin precursor (tyr87) biotinylated peptide which contains the residues surrounding tyrosine 87 (EEAY*GWM) of gastrin precursor was obtained (Cell Signaling Tech, Item no. 1310, Lot 7). The peptide was provided at a stock concentration of 6 μM, and used a final concentration of 0.5 μM in the HTRF assay.
10 mM stock in 100 μL Enzyme assay buffer pH7.4 was prepared freshly and used at a final concentration of 10 μM in the assay.
Powders were dissolved in 100% DMSO to a final stock concentration of 10 mM. The volume needed (in μL) to add for 10 mM=mg powder is 10^5/MW of compound. The final compound concentration in the assay plate started at 10 μM.
Pfizer FAK inhibitor PF-562271 (N-methyl-N-(3-(((2-((2-oxoindolin-5-yl)amino)-5-(trifluoromethyl)pyrimidin-4-yl)amino)methyl)pyridin-2-yl)methanesulfonamide) was prepared as per the reported procedure from US Patent Publication No. 2005/256145A1.
Streptavidin-Allophycocyanin was obtained (Prozyme, Cat. No. PJ25S. SA-APC was provided at a stock concentration of 2.06 mg/mL, where APC concentration was 11.6 μM and the streptavidin concentration was 15.5 μM. SA-APC was used at a final concentration of 12 nM in the assay (based on streptavidin concentration).
This reagent was obtained from Perkin ElmerAD0068. Europium-W1024-PT-66 Anti Phospho Tyrosine Ab is a monoclonal IgG1 that recognizes phospho tyrosine peptide. 100 μg/mL stock was used at a final concentration of 0.1 nM in the assay.
• 1. The compound dilutions were made by TECAN liquid handler as per the scheme in FIG. 1. • 2. 16 μL of diluted compound was added to each well of the assay plate using TECAN liquid handler. • 3. 20 μL of substrate mix (biotinylated gastrin precursor) was added into each well of the assay plate manually. • 4. 10 μL of enzyme mix (FAK1) was added to each well except mins. • 5. The plate was incubated at rt for 45 min with shaking. • 6. The HTRF mix was prepared and 75 μL was added to the HTRF plate. • 7. After the incubation was over, 10 μL of the mixture was transferred to the HTRF assay plate and incubated for 45 min at rt with shaking. • 8. The readings were taken in Pherastar in HTRF mode (ext 337 nm, em 665 & 620 nm) • 9. The results were analyzed using Graphpad Prism® software after calculation the z factor signal window and % inhibition. • 10. The IC50 was calculated.

T1 sequence (Q05397 422-680 limits assumed): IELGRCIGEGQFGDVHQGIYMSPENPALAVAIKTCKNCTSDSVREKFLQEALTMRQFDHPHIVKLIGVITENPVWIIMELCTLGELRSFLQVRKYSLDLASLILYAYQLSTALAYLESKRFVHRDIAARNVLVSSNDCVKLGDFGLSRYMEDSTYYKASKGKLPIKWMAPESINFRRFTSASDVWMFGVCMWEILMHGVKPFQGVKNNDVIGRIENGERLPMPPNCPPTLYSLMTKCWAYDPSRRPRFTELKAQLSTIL

Structure (SMILES) | IC50 [nM]
O=S(=O)(c1ccc(OC(F)(F)F)cc1)n1ccc2cnc(Nc3ccc4ncsc4c3)cc21 [Example 49] | > 1000
CC(=O)Nc1ccccc1Nc1ncc2ccn(Cc3cccnc3N(C)S(C)(=O)=O)c2n1 [Example 71] | > 1000
CC(=O)Nc1cccc(Nc2cc3c(ccn3-c3ccccn3)cn2)c1 [Example 37] | > 1000
c1cncc(Cn2ccc3cnc(Nc4ccc5ncsc5c4)cc32)c1 [Example 15] | > 1000
O=S(=O)(c1ccccc1OC(F)(F)F)n1ncc2cnc(Nc3ccc4ncsc4c3)cc21 [Example 89] | > 1000
CC(=O)Nc1ccc(Nc2cc3c(cn2)c(C)nn3Cc2cccnc2N(C)S(C)(=O)=O)cc1 [Example 72] | > 1000
C[C@H]1CN(C(=O)c2ccc(Nc3ncc4ccn(Cc5cccnc5N(C)S(C)(=O)=O)c4n3)cc2)CCN1 [Example 682] | > 1000
CC(=O)Nc1cccc(Nc2ncc3ccn(S(=O)(=O)c4ccc(OC(F)(F)F)cc4)c3n2)c1 [Example 44] | > 1000
CN(c1ncccc1CN1C(=O)C(C)(C)c2cnc(Nc3ccc(N4CCNCC4)cc3)nc21)S(C)(=O)=O [Example 380] | > 1000
FC(F)(F)c1cccc(Nc2cc3c(ccn3Cc3cccnc3)cn2)c1 [Example 16] | > 1000
CC(=O)Nc1ccc(Nc2cc3c(ccn3S(=O)(=O)c3ccc(OC(F)(F)F)cc3)cn2)cc1 [Example 47] | > 1000
O=S(=O)(c1ccc(Nc2ncc3ccn(Cc4ccccc4OC(F)F)c3n2)cc1)C(F)F [Example 9] | > 1000
COc1ccc(N(C)S(C)(=O)=O)c(Cn2ccc3cnc(Nc4ccc(N5CCNCC5)c(F)c4)nc32)c1 [Example 700] | < 20
Cc1ccc(N(C)S(C)(=O)=O)c(Cn2ccc3cnc(Nc4ccc(N5CCC(N(C)C)CC5)cc4)nc32)c1 [Example 761] | < 20
Cc1ccc(N(C)S(C)(=O)=O)c(Cn2ccc3cnc(Nc4ccc(C5CCNCC5)cc4)nc32)c1 [Example 789] | < 20
O=S(=O)(c1ccc(Nc2cc3c(ccn3Cc3cccnc3)cn2)cc1)C(F)F [Example 8] | > 1000
CN(C)C1CCN(c2ccc(Nc3ncc4ccn(Cc5cc(F)ccc5N(C)S(C)(=O)=O)c4n3)cc2)CC1 [Example 778] | < 20
COc1ccc(N(C)S(C)(=O)=O)c(Cn2ccc3cnc(Nc4ccc(N5CCC(N(C)C)CC5)c(C)c4)nc32)c1 [Example 705] | < 20
CN(c1ccc(OC(F)F)cc1Cn1ccc2cnc(Nc3ccc(N4CCNCC4)cc3)nc21)S(C)(=O)=O [Example 717] | < 20
O=C1CCc2cc(Nc3ncc4ccn(S(=O)(=O)c5ccc(OC(F)(F)F)cc5)c4n3)ccc2N1 [Example 41] | > 1000
Cc1cc(Nc2ncc3ccn(Cc4cc(F)ccc4N(C)S(C)(=O)=O)c3n2)ccc1N1CCC(N(C)C)CC1 [Example 794] | < 20
Cc1cc(Nc2ncc3ccn(Cc4cc(F)ccc4N(C)S(C)(=O)=O)c3n2)ccc1C1CCNCC1 [Example 782] | < 20
Cc1ccc(N(C)S(C)(=O)=O)c(Cn2ccc3cnc(Nc4ccc(N5CCNCC5)c(F)c4)nc32)c1 [Example 941] | < 20
COc1ccc(N(C)S(C)(=O)=O)c(Cn2ccc3cnc(Nc4ccc(N5CCNCC5)cc4)nc32)c1 [Example 661] | < 20
O=C1CCc2cc(Nc3cc4c(ccn4S(=O)(=O)c4ccc(OC(F)(F)F)cc4)cn3)ccc2N1 [Example 48] | > 1000
CC(C)N1CCN(c2ccc(Nc3ncc4ccn(Cc5ccccc5N(C)S(C)(=O)=O)c4n3)cc2)CC1 [Example 484] | < 20
CC1CN(c2ccc(Nc3cc4c(ccn4S(=O)(=O)c4ccccc4C#N)cn3)cc2)CC(C)N1 (centres unmarked) [Example 529] | < 20

Now from value to compound:

IC50 [nM] | Structure (SMILES)
< 20 | C[C@H]1CN(C)CCN1c1ccc(Nc2ncc3ccn(Cc4ccccc4N(C)S(C)(=O)=O)c3n2)cc1 [Example 495]
< 20 | Cc1cnc(N(C)S(C)(=O)=O)c(Cn2ccc3cnc(Nc4ccc(N5CCC(N(C)C)CC5)c(C)c4)nc32)c1 [Example 981]
< 20 | Cc1ccc(N(C)S(C)(=O)=O)c(Cn2ccc3cnc(Nc4ccc(N5CCNCC5)cc4)nc32)c1 [Example 759, N-methyl-N-(4-methyl-2-((2-((4-(piperazin-1-yl)phenyl)amino)-7H-pyrrolo[2,3-d]pyrimidin-7-yl)methyl)phenyl)methanesulfonamide]
< 20 | CN(c1ccccc1Cn1ccc2cnc(Nc3ccc(N4CCC(CO)CC4)cc3)nc21)S(C)(=O)=O [Example 566]
< 20 | O=S(=O)(c1cccc2cccnc12)n1ncc2cnc(Nc3ccc(N4CCN(CCO)CC4)cc3)cc21 [Example 351]
< 20 | CN(C)C1CCN(c2ccc(Nc3ncc4ccn(Cc5ccccc5N(C)S(C)(=O)=O)c4n3)cc2F)C1 (centres unmarked) [Example 590]
< 20 | COc1cc(Nc2ncc3ccn(S(=O)(=O)c4cccc5cccnc45)c3n2)ccc1NC(=O)C1CC1 [Example 376]
< 20 | CNC(=O)c1ccc(Nc2ncc3ccn(Cc4cc(F)ccc4N(C)S(C)(=O)=O)c3n2)cc1 [Example 983]
< 20 | CN1CCCN(c2ccc(Nc3cc4c(ccn4S(=O)(=O)c4ccccc4C#N)cn3)cc2)CC1 [Example 505]
< 20 | CN1CCN(c2ccc(Nc3ncc4c(n3)N(S(=O)(=O)c3cccc5cccnc35)CC43CC3)cc2)CC1 [Example 499]
< 20 | Cc1ccc(N(C)S(C)(=O)=O)c(Cn2ccc3cnc(Nc4ccc(N5CCCC(N)C5)cc4)nc32)c1 (centres unmarked) [Example 978]
< 20 | Cc1ccc(N(C)S(C)(=O)=O)c(Cn2ccc3cnc(Nc4ccc(N5CCC(N)CC5)cc4)nc32)c1 [Example 977]
< 20 | O=C1CCc2cc(Nc3ncc4ccn(Cc5ccccc5OC(F)(F)F)c4n3)ccc2N1 [Example 83]
< 20 | COc1cc(Nc2ncc3ccn(Cc4cc(F)ccc4N(C)S(C)(=O)=O)c3n2)ccc1N1CCNCC1 [Example 801]
< 20 | C[C@@H]1CN(c2ccc(Nc3ncc4c(n3)N(S(=O)(=O)c3cccc5cccnc35)CC4(C)C)cc2)CCN1 [Example 470, (R)-5,5-dimethyl-N-(4-(3-methylpiperazin-1-yl)phenyl)-7-(quinolin-8-ylsulfonyl)-6,7-dihydro-5H-pyrrolo[2,3-d]pyrimidin-2-amine]
< 20 | Cc1ccc(N(C)S(C)(=O)=O)c(Cn2ccc3cnc(Nc4ccc(N5CCN[C@@H](C)C5)c(F)c4)nc32)c1 [Example 809]
< 20 | CN(c1ccc(C(F)(F)F)cc1Cn1ccc2cnc(Nc3ccc(N4CCNCC4)cc3)nc21)S(C)(=O)=O [Example 892]
< 20 | CC(C)C(=O)Nc1ccc(Nc2ncc3ccn(S(=O)(=O)c4cccc5cccnc45)c3n2)cc1 [Example 324]
< 20 | CN(c1ccccc1Cn1ccc2cnc(Nc3ccc(N4CCNCC4)c(F)c3)cc21)S(C)(=O)=O [Example 322]
< 20 | CN(c1ccccc1Cn1ccc2cnc(Nc3ccc(N4CCC(C)(O)CC4)cc3)nc21)S(C)(=O)=O [Example 638]
< 20 | CN(C)C1CCN(c2ccc(Nc3ncc4ccn(Cc5ccccc5N(C)S(C)(=O)=O)c4n3)cc2)C1 (centres unmarked) [Example 571]
< 20 | CN(c1ccc(F)cc1Cn1ccc2cnc(Nc3ccc(N4CCNCC4)c(F)c3)nc21)S(C)(=O)=O [Example 802]
< 20 | COc1ccc(N(C)S(C)(=O)=O)c(Cn2ccc3cnc(Nc4ccc(N5CCC(N(C)C)CC5)c(OC)c4)nc32)c1 [Example 703]
